Source: US4436918A, “Method for production of peptide, and its intermediate” (Takeda Chemical Industries, Ltd., priority 1981, dated 1984)
Converted amounts (≈) assume the structure as drawn.

Experiments:
Experiment in all cases: Antibacterial activity, agar dilution method (MIC)
Assay type in all cases: cell-based
[1] = tested on: Proteus vulgaris IFO 3988; settings: IFO3988, 10^6 CFU/ml, 37° C., 18-20 hours, pH 7.0
Protocol: (§1) The above-mentioned minimum inhibitory concentration (MIC; μg/ml) values were determined by the agar dilution method using the medium mentioned below. The inoculum size was one loopful with a viable count of 10^6 CFU/ml. Incubation was performed at 37° C. for 18-20 hours. Medium: glucose 3%, sodium glutamate 0.5%, K2 HPO4 0.05%, MgSO4.7H2 O 0.05%, KCl 0.05%, yeast extract (Difco) 0.05%, Casamino acid 0.02%, agar 1.5% (pH 7.0).

[2] = tested on: Proteus vulgaris IFO 3045; settings: IFO3045, 10^6 CFU/ml, 37° C., 18-20 hours, pH 7.0
Protocol: as §1

[3] = tested on: Bacillus subtilis PCI 219; settings: PCI219, 10^6 CFU/ml, 37° C., 18-20 hours, pH 7.0
Protocol: as §1

[4] = tested on: Proteus morganii IFO 3168; settings: Morganella morganii, IFO3168, 10^6 CFU/ml, 37° C., 18-20 hours, pH 7.0
Protocol: as §1

[5] = tested on: Escherichia coli NIHJ JC-2; settings: NIHJJC2, 10^6 CFU/ml, 37° C., 18-20 hours, pH 7.0
Protocol: as §1

MIC [1]: 1.6 to 4.8 µg/mL (≈ 6.52 to 19.6 µM) | MIC [2]: 0.6 to 2.4 µg/mL (≈ 2.45 to 9.79 µM) | MIC [3]: 6 to 24 µg/mL (≈ 24.5 to 97.9 µM) | MIC [4]: 3 to 12 µg/mL (≈ 12.2 to 48.9 µM) | MIC [5]: 3 to 12 µg/mL (≈ 12.2 to 48.9 µM)
SMILES: C[C@@H](N)C(=O)NC(C(=O)O)C1CC(O)NC1=O (stereo partly drawn) [D-Alanyl-2-(5-hydroxy-2-oxopyrrolidin-3-yl)glycine]
